Results: patent publication US20230220021A1, “CYCLIC PEPTIDE INHIBITORS OF PSD-95 AND USES THEREOF” (University of Copenhagen, priority 2020, published 2023)
Where a SMILES comes first, the peptide text is derived from it. [ ]: non-standard residue; d: D form.

Tests used:
[1] = molecular target: T1, PSD-95-PDZ2 (Homo sapiens, UniProt P78352, V178C); assay: SPOT peptide array screening with TAMRA labelled PSD-95-PDZ2; assay type: binding; settings: SPOT array, TAMRA labelled PSD-95-PDZ2-V178C, normalized to WT
T1 construct: screened with the TAMRA labelled PSD-95-PDZ2-V178C domain; 7xHis (N); made in house
Experimental: SPOT peptide array synthesis. To generate the cyclic nNOSβ-hairpin arrays, we used the Intavis MultiPep spotter (Intavis Bioanalytical instruments). The membranes employed in this assay were SynthoPlan APEG CE (standard amino-modified acid stable sellulose membrane with a PEG-spacer), 10×15 cm with a loading of 400 nmol cm^−2. Solutions of 0.3 M Fmoc-AA-OH and 0.3 M Oxyma Pure were prepared in N-methyl-2-pyrrolidone (NMP). The activator solution consisted of 0.3 M DIC and 0.3 M of 2,4,6-trimethylpyridine (Collidine) in NMP. The capping solution consisted of a solution of 1 M acetic anhydride and 0.05 M of 4-dimethylaminopyridine (DMAP) in NMP. The deprotection solution consisted of 20% piperidine in NMP. AA couplings were performed 1 h,4 times. Deprotection of the Fmoc groups was performed 15min,2 times. Membrane washing between couplings or deprotections was performed with NMP and ethanol. Elongation of peptides in cellulose membrane was started by coupling first the Fmoc-PEG(9)-OH (Iris Biotech) and the subsequent mixture of Fmoc-Gly-OH (25%) and Boc-Gly-OH (75%) to lower the total loading of the membrane. Afterwards, the resin was capped with the capping solution and extensively washed and soaked in bromophenol blue (BPB) as a quality control to reveal the SPOTS with a functional amino group. Then, we coupled the quasi-orthogonal group Fmoc-Glu-PP, and carried out the rest of the synthesis until peptide completion. The cellulose bound linear peptides were finally treated with a solution of 95% DCM, 3% TIPS and 2% TFA 3 times, 20 min. to remove the quasi-orthogonal group. Afterwards, the membrane was washed 5 times with DCM and neutralized with 5% DIPEA in DCM. The membrane was then washed 5 more times with DCM, 5 times with NMP and cyclized with 0.3M PyAOP and 0.3M of DIPEA in DMF for 3 h or overnight. Finally, the membrane was dried with DCM and the side-chain protecting groups were cleaved with the standard deprotection cocktail (95% TFA, 2.5% H2O and 2.5% TIPS) or with reagent K [TFA 82.5%, phenol 5%, H2O 5%, thioanisole 5% and 1,2-ethanedithiol (EDT) 2.5%] for 3 h.
SPOT membrane screening. Membranes were incubated with PBS pH 7.2+0.5% bovine serum albumin (BSA) for 1 h. After the incubation period, the membrane was dried and scanned with an Amershan Typhoon scanner, at 400V, Cy3 wavelength (532 nm). A TIF file of the screening and a file with the blank values were generated using the Image Quant software. Afterwards, a solution of 50 nM of TAMRA labelled PSD-95-PDZ2 domain was prepared in PBS pH 7.2+0.5% BSA and was added to the membrane. The membrane was left incubating in a Polymax 1040 rocking table for 1 h protected from the light. Passed the incubation time, the excess of labelled protein was removed by washing the membrane 3 times with PBS+0.5% BSA. Finally, the membrane fluorescence values were measured with the Amershan Typhoon scanner at 400V, Cy3 wavelength (532 nm). Using the Image Quant software, the TIF image of the screening and a file with the fluorescence values of the peptides with the TAMRA labelled PSD-95-PDZ2 were generated. The blank was then subtracted from the fluorescence values of the peptides screened against the TAMRA labelled PSD-95-PDZ2.
A deep mutational scan was performed on the WT scaffold, exchanging each AA to the remaining 19 L-AAs. Each array contained three copies of the individual peptides as technical replicates. Additionally, three controls were included in the design: the cyclic nNOS β-hairpin WT control (positive control), a linear nNOS peptide (cyclization control) and a cyclic nNOS β-hairpin with a F111V substitution (negative control previously tested in FP competition assays). For array screening, a mutation in PSD-95-PDZ2 residue V178 (PSD-95-PDZ2-V178C) was introduced, which was subsequently labelled with TAMRA maleimide. […]

[2] = molecular target: T2, PSD-95-PDZ2 (Homo sapiens, UniProt P78352); assay: Fluorescence polarization (FP) competition assay against cyclic nNOS TAMRA probe; assay type: binding; settings: for Ki: FP competition, cyclic nNOS TAMRA probe, mean of triplicates, N.B. = not binding, read-out: Ki; for Relative Ki (Ki mut/Ki WT): FP inhibition constant normalized to WT value
T2 construct: 7xHis (N); made in house; host or cells: Escherichia coli B21 pLys (for the mutants, 'as previously described')

Row | Normalized SPOT fluorescence (Mut/WT) [1] | Ki [2] [µM] | Relative Ki (Ki mut/Ki WT) [2] | SMILES
1 | 0.16 | 1.42 | 0.95 | CC[C@H](C)[C@@H]1NC(=O)[C@H]([C@@H](C)O)NC(=O)[C@H](CCCCN)NC(=O)[C@@H]2CCCN2C(=O)[C@H]([C@@H](C)O)NC(=O)CNC(=O)[C@H](CC(=O)O)NC(=O)CNC(=O)[C@H]([C@@H](C)O)NC(=O)[C@H](Cc2ccccc2)NC(=O)[C@H](CC(=O)O)NC(=O)[C@H]([C@@H](C)O)NC(=O)[C@H](CCC(=O)O)NC(=O)[C@H](CC(C)C)NC(=O)[C@H](Cc2c[nH]cn2)NC(=O)[C@H]([C@@H](C)O)NC(=O)[C@H](CCC(N)=O)NC(=O)CNC(=O)[C@H]2CCCN2C(=O)[C@H](CCC(N)=O)NC(=O)[C@H]([C@@H](C)O)NC(=O)[C@H](C(C)C)NC(=O)[C@H](CCCNC(=N)N)NC1=O [compound 54] (cyclo(THLETDFTGDGTPKTIRVTQ[dP]GQ))
2 | 0.97 | 1.5 | 1.00 | CC[C@H](C)[C@@H]1NC(=O)[C@H]([C@@H](C)O)NC(=O)[C@H](CCCCN)NC(=O)[C@@H]2CCCN2C(=O)[C@H]([C@@H](C)O)NC(=O)CNC(=O)[C@H](CC(=O)O)NC(=O)CNC(=O)[C@H]([C@@H](C)O)NC(=O)[C@H](Cc2ccccc2)NC(=O)[C@H]([C@@H](C)O)NC(=O)[C@H]([C@@H](C)O)NC(=O)[C@H](CCC(=O)O)NC(=O)[C@H](CC(C)C)NC(=O)[C@H](Cc2c[nH]cn2)NC(=O)[C@H](C)NC(=O)[C@H](CCC(N)=O)NC(=O)CNC(=O)[C@H]2CCCN2C(=O)[C@H](CCC(N)=O)NC(=O)[C@H]([C@@H](C)O)NC(=O)[C@H](C(C)C)NC(=O)[C@H](CCCNC(=N)N)NC1=O [compound 55] (cyclo(AHLETTFTGDGTPKTIRVTQ[dP]GQ))
3 | 0.38 |  | 1.37 | CC[C@H](C)[C@@H]1NC(=O)[C@H]([C@@H](C)O)NC(=O)[C@H](CCCCN)NC(=O)[C@@H]2CCCN2C(=O)[C@H]([C@@H](C)O)NC(=O)CNC(=O)[C@H](CC(=O)O)NC(=O)CNC(=O)[C@H]([C@@H](C)O)NC(=O)[C@H](Cc2ccccc2)NC(=O)[C@H]([C@@H](C)O)NC(=O)[C@H]([C@@H](C)O)NC(=O)[C@H](CCC(=O)O)NC(=O)[C@H](CC(C)C)NC(=O)[C@H](C)NC(=O)[C@H]([C@@H](C)O)NC(=O)[C@H](CCC(N)=O)NC(=O)CNC(=O)[C@H]2CCCN2C(=O)[C@H](CCC(N)=O)NC(=O)[C@H]([C@@H](C)O)NC(=O)[C@H](C(C)C)NC(=O)[C@H](CCCNC(=N)N)NC1=O [compound 56] (cyclo(TALETTFTGDGTPKTIRVTQ[dP]GQ))
4 | 0.15 |  | 14.11 | CC[C@H](C)[C@@H]1NC(=O)[C@H]([C@@H](C)O)NC(=O)[C@H](CCCCN)NC(=O)[C@@H]2CCCN2C(=O)[C@H]([C@@H](C)O)NC(=O)CNC(=O)[C@H](CC(=O)O)NC(=O)CNC(=O)[C@H]([C@@H](C)O)NC(=O)[C@H](Cc2ccccc2)NC(=O)[C@H]([C@@H](C)O)NC(=O)[C@H]([C@@H](C)O)NC(=O)[C@H](C)NC(=O)[C@H](CC(C)C)NC(=O)[C@H](Cc2c[nH]cn2)NC(=O)[C@H]([C@@H](C)O)NC(=O)[C@H](CCC(N)=O)NC(=O)CNC(=O)[C@H]2CCCN2C(=O)[C@H](CCC(N)=O)NC(=O)[C@H]([C@@H](C)O)NC(=O)[C@H](C(C)C)NC(=O)[C@H](CCCNC(=N)N)NC1=O [compound 58] (cyclo(THLATTFTGDGTPKTIRVTQ[dP]GQ))
5 | 0.66 |  | 2.62 | CC[C@H](C)[C@@H]1NC(=O)[C@H]([C@@H](C)O)NC(=O)[C@H](CCCCN)NC(=O)[C@@H]2CCCN2C(=O)[C@H]([C@@H](C)O)NC(=O)CNC(=O)[C@H](CC(=O)O)NC(=O)CNC(=O)[C@H]([C@@H](C)O)NC(=O)[C@H](Cc2ccccc2)NC(=O)[C@H](C)NC(=O)[C@H]([C@@H](C)O)NC(=O)[C@H](CCC(=O)O)NC(=O)[C@H](CC(C)C)NC(=O)[C@H](Cc2c[nH]cn2)NC(=O)[C@H]([C@@H](C)O)NC(=O)[C@H](CCC(N)=O)NC(=O)CNC(=O)[C@H]2CCCN2C(=O)[C@H](CCC(N)=O)NC(=O)[C@H]([C@@H](C)O)NC(=O)[C@H](C(C)C)NC(=O)[C@H](CCCNC(=N)N)NC1=O [compound 60] (cyclo(THLETAFTGDGTPKTIRVTQ[dP]GQ))
6 | 0.97 |  | 1.18 | CC[C@H](C)[C@@H]1NC(=O)[C@H]([C@@H](C)O)NC(=O)[C@H](CCCCN)NC(=O)[C@@H]2CCCN2C(=O)[C@H]([C@@H](C)O)NC(=O)CNC(=O)[C@H](CC(=O)O)NC(=O)CNC(=O)[C@H](C)NC(=O)[C@H](Cc2ccccc2)NC(=O)[C@H]([C@@H](C)O)NC(=O)[C@H]([C@@H](C)O)NC(=O)[C@H](CCC(=O)O)NC(=O)[C@H](CC(C)C)NC(=O)[C@H](Cc2c[nH]cn2)NC(=O)[C@H]([C@@H](C)O)NC(=O)[C@H](CCC(N)=O)NC(=O)CNC(=O)[C@H]2CCCN2C(=O)[C@H](CCC(N)=O)NC(=O)[C@H]([C@@H](C)O)NC(=O)[C@H](C(C)C)NC(=O)[C@H](CCCNC(=N)N)NC1=O [compound 62] (cyclo(THLETTFAGDGTPKTIRVTQ[dP]GQ))
7 | 0.68 |  | 3.03 | CC[C@H](C)[C@@H]1NC(=O)[C@H]([C@@H](C)O)NC(=O)[C@H](CCCCN)NC(=O)[C@@H]2CCCN2C(=O)[C@H]([C@@H](C)O)NC(=O)CNC(=O)[C@H](CC(=O)O)NC(=O)[C@H](C)NC(=O)[C@H]([C@@H](C)O)NC(=O)[C@H](Cc2ccccc2)NC(=O)[C@H]([C@@H](C)O)NC(=O)[C@H]([C@@H](C)O)NC(=O)[C@H](CCC(=O)O)NC(=O)[C@H](CC(C)C)NC(=O)[C@H](Cc2c[nH]cn2)NC(=O)[C@H]([C@@H](C)O)NC(=O)[C@H](CCC(N)=O)NC(=O)CNC(=O)[C@H]2CCCN2C(=O)[C@H](CCC(N)=O)NC(=O)[C@H]([C@@H](C)O)NC(=O)[C@H](C(C)C)NC(=O)[C@H](CCCNC(=N)N)NC1=O [compound 63] (cyclo(THLETTFTADGTPKTIRVTQ[dP]GQ))
8 | 1.80 |  | 2.15 | CC[C@H](C)[C@@H]1NC(=O)[C@H]([C@@H](C)O)NC(=O)[C@H](CCCCN)NC(=O)[C@@H]2CCCN2C(=O)[C@H]([C@@H](C)O)NC(=O)CNC(=O)[C@H](C)NC(=O)CNC(=O)[C@H]([C@@H](C)O)NC(=O)[C@H](Cc2ccccc2)NC(=O)[C@H]([C@@H](C)O)NC(=O)[C@H]([C@@H](C)O)NC(=O)[C@H](CCC(=O)O)NC(=O)[C@H](CC(C)C)NC(=O)[C@H](Cc2c[nH]cn2)NC(=O)[C@H]([C@@H](C)O)NC(=O)[C@H](CCC(N)=O)NC(=O)CNC(=O)[C@H]2CCCN2C(=O)[C@H](CCC(N)=O)NC(=O)[C@H]([C@@H](C)O)NC(=O)[C@H](C(C)C)NC(=O)[C@H](CCCNC(=N)N)NC1=O [compound 64] (cyclo(THLETTFTGAGTPKTIRVTQ[dP]GQ))
